Laboratory results taken from ChEMBL document CHEMBL4507284, “Data for DCP probe BI-1230” (2021).

Tests used:
[1] = molecular target: Tyrosine-protein kinase receptor Tie-1 (Homo sapiens) (UniProt P35590); settings: Compound concentration 1000.0 nM
[2] = molecular target: Ribosomal protein S6 kinase alpha-4 (Homo sapiens) (UniProt O75676); settings: Compound concentration 1000.0 nM
[3] = molecular target: Casein kinase II subunit alpha' (Homo sapiens) (UniProt P19784); settings: Compound concentration 1000.0 nM
[4] = molecular target: Histamine H1 receptor (Homo sapiens) (UniProt P35367); settings: Compound concentration 10.0 uM
[5] = molecular target: Serine/threonine-protein kinase/endoribonuclease IRE1 (Homo sapiens) (UniProt O75460); settings: Compound concentration 1000.0 nM
[6] = molecular target: Myosin light chain kinase, smooth muscle (Homo sapiens) (UniProt Q15746); settings: Compound concentration 1000.0 nM
[7] = molecular target: Serine/threonine-protein kinase BRSK2 (Homo sapiens) (UniProt Q8IWQ3); settings: Compound concentration 1000.0 nM
[8] = molecular target: Tyrosine-protein kinase Srms (Homo sapiens) (UniProt Q9H3Y6); settings: Compound concentration 1000.0 nM
[9] = molecular target: Calcium/calmodulin-dependent protein kinase type II subunit beta (Homo sapiens) (UniProt Q13554); settings: Compound concentration 1000.0 nM
[10] = molecular target: TGF-beta receptor type-1 (Homo sapiens) (UniProt P36897); settings: Compound concentration 1000.0 nM
[11] = molecular target: Sodium-dependent serotonin transporter (Homo sapiens) (UniProt P31645); settings: Compound concentration 10.0 uM
[12] = molecular target: Phosphatidylinositol 4,5-bisphosphate 3-kinase catalytic subunit delta isoform (Homo sapiens) (UniProt O00329); settings: Compound concentration 1000.0 nM
[13] = molecular target: Serine/threonine-protein kinase PAK 2 (Homo sapiens) (UniProt Q13177); settings: Compound concentration 1000.0 nM
[14] = molecular target: Cyclin-dependent kinase 15 (Homo sapiens) (UniProt Q96Q40); settings: Compound concentration 1000.0 nM
[15] = molecular target: Mitogen-activated protein kinase 13 (Homo sapiens) (UniProt O15264); settings: Compound concentration 1000.0 nM
[16] = molecular target: Tyrosine-protein kinase Fer (Homo sapiens) (UniProt P16591); settings: Compound concentration 1000.0 nM
[17] = molecular target: Interferon-induced, double-stranded RNA-activated protein kinase (Homo sapiens) (UniProt P19525); settings: Compound concentration 1000.0 nM
[18] = molecular target: Tyrosine-protein kinase ABL1 (Homo sapiens) (UniProt P00519); settings: Compound concentration 1000.0 nM
[19] = molecular target: Receptor tyrosine-protein kinase erbB-3 (Homo sapiens) (UniProt P21860); settings: Compound concentration 1000.0 nM
[20] = molecular target: Activin receptor type-1 (Homo sapiens) (UniProt Q04771); settings: Compound concentration 1000.0 nM
[21] = system: Mast/stem cell growth factor receptor Kit (Homo sapiens), P10721 [A829P]; settings: Compound concentration 1000.0 nM
[22] = molecular target: Dual specificity protein kinase CLK4 (Homo sapiens) (UniProt Q9HAZ1); settings: Compound concentration 1000.0 nM
[23] = molecular target: Mitogen-activated protein kinase kinase kinase 13 (Homo sapiens) (UniProt O43283); settings: Compound concentration 1000.0 nM
[24] = system: Tyrosine-protein kinase ABL1 (Homo sapiens), P00519 [E255K]; settings: Compound concentration 1000.0 nM
[25] = molecular target: 5'-AMP-activated protein kinase catalytic subunit alpha-1 (Homo sapiens) (UniProt Q13131); settings: Compound concentration 1000.0 nM
[26] = molecular target: Rhodopsin kinase GRK1 (Homo sapiens) (UniProt Q15835); settings: Compound concentration 1000.0 nM
[27] = molecular target: Mitogen-activated protein kinase kinase kinase kinase 1 (Homo sapiens) (UniProt Q92918); settings: Compound concentration 1000.0 nM
[28] = molecular target: Mitogen-activated protein kinase 9 (Homo sapiens) (UniProt P45984); settings: Compound concentration 1000.0 nM
[29] = molecular target: Protein kinase C eta type (Homo sapiens) (UniProt P24723); settings: Compound concentration 1000.0 nM
[30] = molecular target: Tyrosine-protein kinase HCK (Homo sapiens) (UniProt P08631); settings: Compound concentration 1000.0 nM
[31] = molecular target: 5-hydroxytryptamine receptor 1D (Homo sapiens) (UniProt P28221); settings: Compound concentration 10.0 uM
[32] = molecular target: Activin receptor type-2A (Homo sapiens) (UniProt P27037); settings: Compound concentration 1000.0 nM
[33] = system: Receptor-type tyrosine-protein kinase FLT3 (Homo sapiens), P36888 [K663Q]; settings: Compound concentration 1000.0 nM
[34] = system: ALK tyrosine kinase receptor (Homo sapiens), Q9UM73 [C1156Y]; settings: Compound concentration 1000.0 nM
[35] = molecular target: Serine/threonine-protein kinase 36 (Homo sapiens) (UniProt Q9NRP7); settings: Compound concentration 1000.0 nM
[36] = molecular target: Serine/threonine-protein kinase WNK1 (Homo sapiens) (UniProt Q9H4A3); settings: Compound concentration 1000.0 nM
[37] = molecular target: Dual specificity tyrosine-phosphorylation-regulated kinase 1B (Homo sapiens) (UniProt Q9Y463); settings: Compound concentration 1000.0 nM
[38] = molecular target: Serine/threonine-protein kinase VRK2 (Homo sapiens) (UniProt Q86Y07); settings: Compound concentration 1000.0 nM
[39] = molecular target: 5-hydroxytryptamine receptor 5A (Homo sapiens) (UniProt P47898); settings: Compound concentration 10.0 uM
[40] = molecular target: Serine/threonine-protein kinase ULK3 (Homo sapiens) (UniProt Q6PHR2); settings: Compound concentration 1000.0 nM
[41] = system: Epidermal growth factor receptor (Homo sapiens), P00533 [G719S]; settings: Compound concentration 1000.0 nM
[42] = molecular target: Calcium/calmodulin-dependent protein kinase kinase 1 (Homo sapiens) (UniProt Q8N5S9); settings: Compound concentration 1000.0 nM
[43] = molecular target: Serine/threonine-protein kinase pim-3 (Homo sapiens) (UniProt Q86V86); settings: Compound concentration 1000.0 nM
[44] = molecular target: Serine/threonine-protein kinase 38 (Homo sapiens) (UniProt Q15208); settings: Compound concentration 1000.0 nM
[45] = molecular target: Myosin light chain kinase 2, skeletal/cardiac muscle (Homo sapiens) (UniProt Q9H1R3); settings: Compound concentration 1000.0 nM

Sequence of Tyrosine-protein kinase Fer (Homo sapiens) (P16591 whole entry, looked up): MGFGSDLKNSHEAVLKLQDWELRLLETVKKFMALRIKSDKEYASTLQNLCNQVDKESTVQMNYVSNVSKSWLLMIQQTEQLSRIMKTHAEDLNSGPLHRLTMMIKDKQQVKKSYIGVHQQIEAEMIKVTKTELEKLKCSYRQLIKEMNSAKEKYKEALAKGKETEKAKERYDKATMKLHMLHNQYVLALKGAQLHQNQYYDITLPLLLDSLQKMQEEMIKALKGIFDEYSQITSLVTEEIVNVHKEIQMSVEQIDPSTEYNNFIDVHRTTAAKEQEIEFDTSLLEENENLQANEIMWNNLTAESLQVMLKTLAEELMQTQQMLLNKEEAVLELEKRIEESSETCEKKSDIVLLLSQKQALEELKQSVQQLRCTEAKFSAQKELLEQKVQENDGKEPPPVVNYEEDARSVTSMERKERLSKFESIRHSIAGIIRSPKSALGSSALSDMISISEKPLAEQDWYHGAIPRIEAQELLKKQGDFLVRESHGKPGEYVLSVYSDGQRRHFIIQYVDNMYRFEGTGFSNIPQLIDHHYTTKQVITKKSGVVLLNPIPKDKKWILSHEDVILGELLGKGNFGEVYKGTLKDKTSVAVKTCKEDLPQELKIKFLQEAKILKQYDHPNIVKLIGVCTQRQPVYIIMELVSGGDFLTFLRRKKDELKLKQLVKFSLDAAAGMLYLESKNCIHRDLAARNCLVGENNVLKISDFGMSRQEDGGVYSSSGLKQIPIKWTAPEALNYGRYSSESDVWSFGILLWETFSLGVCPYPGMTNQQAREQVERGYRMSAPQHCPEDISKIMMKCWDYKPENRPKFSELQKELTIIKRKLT
Sequence of Receptor tyrosine-protein kinase erbB-3 (Homo sapiens) (P21860 whole entry): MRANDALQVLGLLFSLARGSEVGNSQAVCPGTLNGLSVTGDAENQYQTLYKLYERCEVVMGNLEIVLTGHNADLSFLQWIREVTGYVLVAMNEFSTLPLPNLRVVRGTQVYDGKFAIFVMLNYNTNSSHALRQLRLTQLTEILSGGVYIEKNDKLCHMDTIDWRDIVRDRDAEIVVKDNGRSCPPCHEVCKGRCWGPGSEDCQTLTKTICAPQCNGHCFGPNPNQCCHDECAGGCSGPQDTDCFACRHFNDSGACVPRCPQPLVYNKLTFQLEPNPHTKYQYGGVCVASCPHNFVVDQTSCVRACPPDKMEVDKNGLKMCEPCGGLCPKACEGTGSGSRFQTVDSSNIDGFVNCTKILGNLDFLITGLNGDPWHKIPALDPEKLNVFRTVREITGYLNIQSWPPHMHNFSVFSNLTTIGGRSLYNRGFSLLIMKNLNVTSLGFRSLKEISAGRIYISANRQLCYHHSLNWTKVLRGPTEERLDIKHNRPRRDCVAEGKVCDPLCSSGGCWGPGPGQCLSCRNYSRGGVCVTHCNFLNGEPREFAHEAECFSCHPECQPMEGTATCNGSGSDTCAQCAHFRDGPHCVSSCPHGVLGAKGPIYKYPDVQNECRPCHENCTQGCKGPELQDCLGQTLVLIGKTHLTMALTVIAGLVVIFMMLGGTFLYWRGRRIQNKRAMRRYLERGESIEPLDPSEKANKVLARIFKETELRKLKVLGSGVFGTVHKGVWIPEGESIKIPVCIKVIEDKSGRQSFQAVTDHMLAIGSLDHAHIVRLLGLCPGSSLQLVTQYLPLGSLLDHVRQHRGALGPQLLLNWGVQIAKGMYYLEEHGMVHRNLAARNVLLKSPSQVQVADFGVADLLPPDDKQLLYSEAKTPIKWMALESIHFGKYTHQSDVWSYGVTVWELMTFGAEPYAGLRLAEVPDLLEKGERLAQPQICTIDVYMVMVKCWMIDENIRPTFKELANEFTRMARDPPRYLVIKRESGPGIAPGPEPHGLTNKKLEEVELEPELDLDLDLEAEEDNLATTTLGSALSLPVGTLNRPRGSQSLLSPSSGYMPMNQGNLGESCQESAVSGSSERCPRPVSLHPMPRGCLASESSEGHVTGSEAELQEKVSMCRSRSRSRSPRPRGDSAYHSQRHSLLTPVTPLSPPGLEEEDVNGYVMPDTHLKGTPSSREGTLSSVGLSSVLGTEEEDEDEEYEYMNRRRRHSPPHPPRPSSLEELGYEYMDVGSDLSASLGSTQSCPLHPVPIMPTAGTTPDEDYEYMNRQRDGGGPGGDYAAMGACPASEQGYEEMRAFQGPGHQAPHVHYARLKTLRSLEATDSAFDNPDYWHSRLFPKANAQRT
Sequence of 5-hydroxytryptamine receptor 5A (Homo sapiens) (P47898 whole entry): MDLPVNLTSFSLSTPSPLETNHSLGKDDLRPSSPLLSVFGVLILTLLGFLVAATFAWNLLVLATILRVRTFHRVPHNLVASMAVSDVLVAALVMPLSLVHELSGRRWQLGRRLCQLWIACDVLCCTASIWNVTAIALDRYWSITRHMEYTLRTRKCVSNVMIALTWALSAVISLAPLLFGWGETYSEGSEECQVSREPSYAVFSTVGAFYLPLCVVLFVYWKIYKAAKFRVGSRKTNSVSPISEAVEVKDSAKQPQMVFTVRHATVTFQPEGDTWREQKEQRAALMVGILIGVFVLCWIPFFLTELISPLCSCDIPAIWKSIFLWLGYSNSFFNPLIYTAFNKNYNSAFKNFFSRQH
Sequence of Cyclin-dependent kinase 15 (Homo sapiens) (Q96Q40 whole entry): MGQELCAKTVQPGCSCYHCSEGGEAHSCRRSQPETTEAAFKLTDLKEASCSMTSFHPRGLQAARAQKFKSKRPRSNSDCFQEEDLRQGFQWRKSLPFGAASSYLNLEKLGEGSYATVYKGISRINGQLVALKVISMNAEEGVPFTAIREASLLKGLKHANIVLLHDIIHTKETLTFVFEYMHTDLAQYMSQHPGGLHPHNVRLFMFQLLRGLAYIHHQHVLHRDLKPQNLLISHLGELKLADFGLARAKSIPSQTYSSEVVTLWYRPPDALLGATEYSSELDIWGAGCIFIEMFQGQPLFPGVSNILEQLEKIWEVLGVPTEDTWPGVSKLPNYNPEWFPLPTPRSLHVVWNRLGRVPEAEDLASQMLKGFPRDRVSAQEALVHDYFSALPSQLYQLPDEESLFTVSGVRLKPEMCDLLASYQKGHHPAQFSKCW
Sequence of Serine/threonine-protein kinase BRSK2 (Homo sapiens) (Q8IWQ3 whole entry): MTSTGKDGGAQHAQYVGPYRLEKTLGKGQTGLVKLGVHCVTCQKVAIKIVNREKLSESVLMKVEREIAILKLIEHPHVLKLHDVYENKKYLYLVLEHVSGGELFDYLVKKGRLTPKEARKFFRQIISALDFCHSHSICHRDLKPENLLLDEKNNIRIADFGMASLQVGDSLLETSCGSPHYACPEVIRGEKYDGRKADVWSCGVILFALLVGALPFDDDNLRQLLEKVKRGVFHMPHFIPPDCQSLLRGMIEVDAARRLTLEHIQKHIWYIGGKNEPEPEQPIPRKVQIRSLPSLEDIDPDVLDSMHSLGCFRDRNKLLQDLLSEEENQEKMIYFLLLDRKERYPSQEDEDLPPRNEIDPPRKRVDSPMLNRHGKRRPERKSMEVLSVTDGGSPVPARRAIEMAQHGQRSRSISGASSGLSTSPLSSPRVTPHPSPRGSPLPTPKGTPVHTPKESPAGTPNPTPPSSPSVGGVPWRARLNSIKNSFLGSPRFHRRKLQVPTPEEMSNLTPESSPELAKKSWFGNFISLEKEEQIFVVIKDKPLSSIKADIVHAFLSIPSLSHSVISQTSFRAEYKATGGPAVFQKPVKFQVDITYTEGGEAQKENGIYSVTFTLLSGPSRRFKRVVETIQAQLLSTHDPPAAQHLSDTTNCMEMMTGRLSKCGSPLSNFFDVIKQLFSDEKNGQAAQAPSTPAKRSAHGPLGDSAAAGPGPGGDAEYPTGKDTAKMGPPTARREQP
Sequence of Calcium/calmodulin-dependent protein kinase type II subunit beta (Homo sapiens) (Q13554 whole entry): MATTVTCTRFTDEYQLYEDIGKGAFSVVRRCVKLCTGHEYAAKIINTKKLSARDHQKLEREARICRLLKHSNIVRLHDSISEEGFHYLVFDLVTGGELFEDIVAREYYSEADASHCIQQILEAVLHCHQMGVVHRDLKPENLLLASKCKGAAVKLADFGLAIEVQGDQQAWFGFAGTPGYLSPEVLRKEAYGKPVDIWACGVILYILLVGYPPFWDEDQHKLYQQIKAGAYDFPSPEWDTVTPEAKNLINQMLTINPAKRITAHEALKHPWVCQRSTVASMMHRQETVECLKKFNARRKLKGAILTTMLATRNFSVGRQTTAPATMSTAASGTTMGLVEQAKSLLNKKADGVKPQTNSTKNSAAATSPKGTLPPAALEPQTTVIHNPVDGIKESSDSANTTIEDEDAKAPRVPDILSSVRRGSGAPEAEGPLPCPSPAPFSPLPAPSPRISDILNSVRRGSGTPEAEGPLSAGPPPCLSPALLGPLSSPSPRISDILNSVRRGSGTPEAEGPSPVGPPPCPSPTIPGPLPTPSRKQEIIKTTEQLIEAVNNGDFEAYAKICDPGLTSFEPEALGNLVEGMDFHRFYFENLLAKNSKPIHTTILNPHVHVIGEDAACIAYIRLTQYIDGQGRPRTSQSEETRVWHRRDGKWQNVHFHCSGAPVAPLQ
Sequence of Interferon-induced, double-stranded RNA-activated protein kinase (Homo sapiens) (P19525 whole entry): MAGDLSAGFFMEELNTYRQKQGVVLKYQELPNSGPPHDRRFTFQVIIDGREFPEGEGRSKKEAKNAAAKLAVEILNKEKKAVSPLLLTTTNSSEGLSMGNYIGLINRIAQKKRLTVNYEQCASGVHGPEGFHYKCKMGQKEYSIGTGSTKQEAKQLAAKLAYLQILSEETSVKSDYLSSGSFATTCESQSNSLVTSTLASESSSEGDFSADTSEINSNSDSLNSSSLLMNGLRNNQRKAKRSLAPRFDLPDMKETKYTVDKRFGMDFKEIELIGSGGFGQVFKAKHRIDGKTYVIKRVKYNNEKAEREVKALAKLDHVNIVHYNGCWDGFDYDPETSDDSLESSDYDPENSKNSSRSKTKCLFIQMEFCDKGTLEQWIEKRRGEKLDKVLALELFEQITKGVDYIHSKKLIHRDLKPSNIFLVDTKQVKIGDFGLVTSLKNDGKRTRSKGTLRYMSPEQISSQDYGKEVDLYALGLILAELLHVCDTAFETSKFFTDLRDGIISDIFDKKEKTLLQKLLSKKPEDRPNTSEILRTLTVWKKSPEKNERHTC

O=C(N[C@H]1CCCCC/C=C\C2C[C@@]2(C(=O)O)NC(=O)[C@@H]2C[C@@H](Oc3ccncc3)CN2C1=O)OC1CCCC1 (stereo not given in full) [BI 1675]
residual activity [1]: 100%
residual activity [2]: 85%
residual activity [3]: 100%
inhibition [4]: 23.9%
residual activity [5]: 80%
residual activity [6]: 100%
residual activity [7]: 100%
residual activity [8]: 100%
residual activity [9]: 99%
residual activity [10]: 100%
inhibition [11]: -6.94%
residual activity [12]: 92%
residual activity [13]: 79%
residual activity [14]: 100%
residual activity [15]: 96%
residual activity [16]: 100%
residual activity [17]: 100%
residual activity [18]: 97%
residual activity [19]: 84%
residual activity [20]: 100%
residual activity [21]: 98%
residual activity [22]: 93%
residual activity [23]: 100%
residual activity [24]: 80%
residual activity [25]: 100%
residual activity [26]: 100%
residual activity [27]: 93%
residual activity [28]: 94%
residual activity [29]: 91%
residual activity [30]: 100%
inhibition [31]: 3.22%
residual activity [32]: 96%
residual activity [33]: 85%
residual activity [34]: 100%
residual activity [35]: 85%
residual activity [36]: 90%
residual activity [37]: 46%
residual activity [38]: 100%
inhibition [39]: 1.81%
residual activity [40]: 82%
residual activity [41]: 63%
residual activity [42]: 96%
residual activity [43]: 100%
residual activity [44]: 97%
residual activity [45]: 100%

COc1ccc2c(O[C@@H]3C[C@H]4C(=O)N[C@]5(C(=O)O)CC5/C=C\CCCCC[C@H](NC(=O)OC5CCCC5)C(=O)N4C3)cc(-c3csc(NC(=O)C(C)C)n3)nc2c1C (stereo not given in full) [BI 1230]
residual activity [1]: 100%
residual activity [2]: 72%
residual activity [3]: 100%
inhibition [4]: 31.5%
residual activity [5]: 79%
residual activity [6]: 78%
residual activity [7]: 100%
residual activity [8]: 98%
residual activity [9]: 100%
residual activity [10]: 100%
inhibition [11]: -8.36%
residual activity [12]: 100%
residual activity [13]: 91%
residual activity [14]: 100%
residual activity [15]: 100%
residual activity [16]: 100%
residual activity [17]: 100%
residual activity [18]: 93%
residual activity [19]: 88%
residual activity [20]: 100%
residual activity [21]: 100%
residual activity [22]: 100%
residual activity [23]: 86%
residual activity [24]: 80%
residual activity [25]: 100%
residual activity [26]: 100%
residual activity [27]: 100%
residual activity [28]: 71%
residual activity [29]: 100%
residual activity [30]: 100%
inhibition [31]: 32.5%
residual activity [32]: 72%
residual activity [33]: 81%
residual activity [34]: 100%
residual activity [35]: 93%
residual activity [36]: 100%
residual activity [37]: 74%
residual activity [38]: 79%
inhibition [39]: 22.1%
residual activity [40]: 93%
residual activity [41]: 76%
residual activity [42]: 100%
residual activity [43]: 94%
residual activity [44]: 50%
residual activity [45]: 100%
